{
  "source": "patent US8232253B2",
  "about": "“Treatment of lung cancer” (Ramot at Tel-Aviv University Ltd., priority 2006, dated 2012)",
  "test_system": "RhoA-GTP",
  "assay": "RhoA-GTP pull-down assay in A549 cells",
  "format": "cell-based, human",
  "description": "A549 cells were incubated for 24 or 48 h with or without FTS, as described above, and then lysed with lysis buffer as described in Haklai, R., Gana-Weisz, M., Elad, G., et al., Biochemistry 37:1306-14 (1998). The apparent amounts of K-Ras-GTP in 0.5 mg protein of total cell lysates were determined by the glutathione-S-transferase (GST)-RBD (Ras-binding domain of Raf) pull-down assay, as described in (Elad-Sfadia, G., Haklai, R., Ballan, E., Gabius, H. J., Kloog, Y., J Biol Chem 277:37169-75 (2002). The apparent amounts of Rac1-GTP and of RhoA-GTP, each in 2 mg protein of total cell lysates, were determined, respectively, by pull-down assays with GST-PBD (Rac1-binding domain of PAK1)-conjugated and GST-Rhotekin BD (Rho-binding domain of Rhotekin)-conjugated beads [Benard, V., Bohl, B. P., Bokoch, G. M, J Biol Chem 274:13198-204 (1999); Fiordalisi, J. J., Keller, P. J., Cox, A. D., Cancer Res 66:3153-61 (2006). […] Levels of phospho-ERK and phospho-Akt were determined by immunoblotting [Haklai, R., Gana-Weisz, M., Elad, G., et al., supra.] using rabbit anti phospho-ERK1/2 Ab (Santa Cruz Biotechnology, Santa Cruz, Calif.) and rabbit anti phospho-Akt Ab (Cell Signaling, Beverly, Mass.). Protein bands were visualized by enhanced chemiluminescence and quantified by densitometry using ImageJ computer software (National institutes of Health, Bethesda, Md.). […]",
  "data": [
    {"compound": "CC(C)=CCC/C(C)=C/CC/C(C)=C/CSc1ccccc1C(=O)O", "note": "[FTS, S-farnesylthiosalicylic acid]", "values": [
      {"measurement": "increase in RhoA-GTP", "result": "2±0.2", "unit": "fold"}
    ]}
  ]
}
